Source: patent US20160264636A1, “PEPTIDE INHIBITORS OF TEAD/YAP-TAZ INTERACTION” (UNIVERSITE PIERRE ET MARIE CURIE (PARIS 6), priority 2013, published 2016)
Where two headings read alike, the source gives them in different places.

Legend:
Format in all cases: cell-based
A549 cells = conditions: for Letal Dose (μM) LD25: Table II, 72 h, MTT, 25% cell death
Experimental: (§1) H1650, H1975, H1299, A549 cell lines were cultured in DMEM medium supplemented with 10% of FCS. HBEC cell lines (wt and Ras V12) were cultured in KSFM supplemented with growth factors. All the cell lines come from human non small cell lung cancer (NSCLC).
(§2) The cytotoxicity of penetrating peptides or chemotherapeutic agents, alone or in combination, was evaluated by the (3-(4,5-dimethylthiazol-2-yl)-2,5-diphenyltetrazolium bromide) tetrazolium (MTT) reduction assay. The cells were seeded in 96-well plates (100 μL/well) at a cell density defined from growth curves. After 24 hours of incubation, cells were treated with the peptides for 72 hours. The wells were rinsed two times with RPMI. After washing, 10 μl of stock MTT solution (5 mg/ml; MTT (SIGMA #M-2128) in PBS Dubecco's 1× without Ca^2+ and Mg^2+) was added to a final volume of 100 μl of culture medium. Cell lines were incubated for additional 4 hours at 37° C. under humid atmosphere with 5% (v/v) CO2. The formation of blue formazan crystals was detected under a microscope. An equal volume of 10% SDS (MERCK, #926.238) in 10 mM HCl was added to each well and the plate was placed in the incubator overnight to dissolve formazan crystals. The plates were mixed to ensure complete solubilisation of formazan crystals and absorbance was measured at 570 nm and 620 nm. The percentage of viable cells was estimated using the formula: % cell viability=ΔOD(570-620) treated/ΔOD(570-620)control×100.
(§3) Cell-penetrating peptides (CPPs) comprising the binding site of TEAD to TAZ or YAP or of YAP to TEAD (TAZ, TEAD and YAP peptides, respectively) were chemically synthesized. The effect of the peptides on cell viability was assayed on several human non small cell lung cancer (NSCLC) cell lines. All the lung cancer cell lines were treated for 72 h with different peptide concentrations. Cytotoxicity was analysed as described in Materials and Methods.

H1299 cells = conditions: for Letal Dose (μM) LD25: Table II, 72 h, MTT, 25% cell death
Experimental: as §1, §2, §3

H1650 cells = conditions: for Letal Dose (μM) LD25: Table II, 72 h, MTT, 25% cell death
Experimental: as §1, §2, §3

H1975 cells = conditions: for Letal Dose (μM) LD25: Table II, 72 h, MTT, 25% cell death
Experimental: as §1, §2, §3

HBEC RasV12 cells = conditions: for Letal Dose (μM) LD25: Table II, 72 h, MTT, 25% cell death
Experimental: as §1, §2, §3

HBEC wt cells = conditions: for Letal Dose (μM) LD25: Table II, HBEC WT, 72 h, MTT, 25% cell death; for Cell viability (%): HBEC wt
Experimental: as §1, §2, §3

ES2 cells = experiment: MTT cytotoxicity assay, ES2; conditions: Table VIII, 72 h, MTT, 25% cell death
Experimental: as §2
(§4) ES2, IGROV-1, OVCAR8 and SKOV3 cell lines come from human ovarian cancer.
as §3, with “ovarian” for “non small cell lung”, “cancer” for “cancer (NSCLC)”, “ovarian” for “lung”, “example 2.” for “Materials and Methods.”

SKOV3 cells = experiment: MTT cytotoxicity assay, SKOV3; conditions: Table VIII, 72 h, MTT, 25% cell death
Experimental: as §2, §4
as §3, with “ovarian” for “non small cell lung”, “cancer” for “cancer (NSCLC)”, “ovarian” for “lung”, “example 2.” for “Materials and Methods.”

IGROV-1 cells = experiment: MTT cytotoxicity assay, IGROV; conditions: Table VIII, 72 h, MTT, 25% cell death
Experimental: as §2, §4
as §3, with “ovarian” for “non small cell lung”, “cancer” for “cancer (NSCLC)”, “ovarian” for “lung”, “example 2.” for “Materials and Methods.”

OVCAR8 cells = experiment: MTT cytotoxicity assay, OVCAR8; conditions: Table VIII, 72 h, MTT, 25% cell death
Experimental: as §2, §4
as §3, with “ovarian” for “non small cell lung”, “cancer” for “cancer (NSCLC)”, “ovarian” for “lung”, “example 2.” for “Materials and Methods.”

[1] = Table III, drug alone vs its vehicle (HPCD10%, NaCl or Glucose 5%)
[2] = Table IV, drug alone vs its vehicle (Glucose 5% or NaCl)
[3] = Table V, drug alone vs its vehicle (Glucose 5% or NaCl)

SMILES | Letal Dose (μM) LD25 (A549 cells) | Cell viability (%) (A549 cells; [1]) | Cell viability (%) (A549 cells; [2]) | Cell viability (%) (A549 cells; [3]) | Letal Dose (μM) LD25 (H1299 cells) | Cell viability (%) (H1299 cells; [1]) | Cell viability (%) (H1299 cells; [2]) | Cell viability (%) (H1299 cells; [3]) | Letal Dose (μM) LD25 (H1650 cells) | Cell viability (%) (H1650 cells; [1]) | Cell viability (%) (H1650 cells; [2]) | Cell viability (%) (H1650 cells; [3]) | Letal Dose (μM) LD25 (H1975 cells) | Cell viability (%) (H1975 cells; [1]) | Cell viability (%) (H1975 cells; [2]) | Cell viability (%) (H1975 cells; [3]) | Letal Dose (μM) LD25 (HBEC RasV12 cells) | Cell viability (%) (HBEC RasV12 cells; [1]) | Cell viability (%) (HBEC RasV12 cells; [2]) | Cell viability (%) (HBEC RasV12 cells; [3]) | further results
N.N.[Cl][Pt][Cl] [Cisplatin] | 3 µM | −37.43% | −60.45% | −57.64% | 30 µM | −57.12% | −73.62% | −95.42% | 2 µM | −55.41% | −77.26% | −83.01% | 30 µM | −76.57% | −85.91% | −97.93% | 1 µM | −44.42% | −55.51% | −89.58% | Letal Dose (μM) LD25 (HBEC wt cells): 2 µM; Cell viability (%) (HBEC wt cells; [1]): −21.45%; Cell viability (%) (HBEC wt cells; [2]): −77.04%; Cell viability (%) (HBEC wt cells; [3]): −77.96%
CC(=O)O[C@@]12CO[C@@H]1C[C@H](O)[C@@]1(C)C(=O)[C@H](O)C3=C(C)[C@@H](OC(=O)[C@H](O)[C@@H](NC(=O)OC(C)(C)C)c4ccccc4)C[C@@](O)([C@@H](OC(=O)c4ccccc4)[C@H]21)C3(C)C [Docetaxel] | 0.0002 µM | 11.73% | −49.02% | −39.31% | 0.007 µM | −10.53% | −72.38% | −89.07% | 0.0001 µM | 23.41% | −41.32% | 0.1681% | 0.0008 µM | 5.931% | −92.17% | −79.23% | 0.0002 µM | 15.19% | −88.64% | −95.93% | Letal Dose (μM) LD25 (HBEC wt cells): 0.0002 µM; Cell viability (%) (HBEC wt cells; [1]): 25.93%; Cell viability (%) (HBEC wt cells; [2]): −54.02%; Cell viability (%) (HBEC wt cells; [3]): −2.578%
C#Cc1cccc(Nc2ncnc3cc(OCCOC)c(OCCOC)cc23)c1 [Tarceva, Erlotinib] | 0 µM | −52.89% | −60.75% | −67.3% | >100 µM | −39.83% | −60.68% | −61.14% | 0.4 µM | −47.11% | −38.72% | −53.13% | 3 µM | −49.68% | −77.63% | −56.6% | 0.001 µM | −4.596% | −25.67% | 0.2682% | Letal Dose (μM) LD25 (HBEC wt cells): 0.04 µM; Cell viability (%) (HBEC wt cells; [1]): −15.63%; Cell viability (%) (HBEC wt cells; [2]): −55.15%; Cell viability (%) (HBEC wt cells; [3]): −37.28%
N.N.O=C([O-])C1(C(=O)[O-])CCC1.[Pt+2] [Carboplatin] | – | – | – | – | – | – | – | – | – | – | – | – | – | – | – | – | – | – | – | – | Letal Dose (μM) LD25 (ES2 cells): 10 µM; Letal Dose (μM) LD25 (SKOV3 cells): 18 µM; Letal Dose (μM) LD25 (IGROV-1 cells): 30 µM; Letal Dose (μM) LD25 (OVCAR8 cells): 30 µM
